# Test results: article PMC10574094, “Discovery of a SHP2 Degrader with In Vivo Anti-Tumor Activity” (Molecules, 2023)
# pIC50: −log10 of the molar value.
# Columns and labels:
# [1] = molecular target: T1, SHP2 (Homo sapiens, UniProt Q06124); set-up: endogenous in cells; host or cells: KYSE-520; settings: cited from earlier work
# T1 sequence (Q06124 1-593): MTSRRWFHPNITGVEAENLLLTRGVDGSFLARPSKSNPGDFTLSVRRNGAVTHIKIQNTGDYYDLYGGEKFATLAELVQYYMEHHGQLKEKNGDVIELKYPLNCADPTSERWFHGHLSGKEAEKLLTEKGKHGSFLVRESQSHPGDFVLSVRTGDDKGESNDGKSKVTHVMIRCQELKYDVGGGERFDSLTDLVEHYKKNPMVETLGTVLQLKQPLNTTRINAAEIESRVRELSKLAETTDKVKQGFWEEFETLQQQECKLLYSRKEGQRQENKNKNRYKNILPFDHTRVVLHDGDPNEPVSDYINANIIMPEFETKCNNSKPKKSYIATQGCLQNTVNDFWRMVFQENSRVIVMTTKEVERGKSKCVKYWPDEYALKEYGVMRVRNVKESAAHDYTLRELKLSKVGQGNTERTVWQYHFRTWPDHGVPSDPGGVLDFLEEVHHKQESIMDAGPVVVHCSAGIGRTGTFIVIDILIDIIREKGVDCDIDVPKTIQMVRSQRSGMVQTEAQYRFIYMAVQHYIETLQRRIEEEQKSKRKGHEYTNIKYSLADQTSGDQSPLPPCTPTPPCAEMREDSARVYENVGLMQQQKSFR
# [2] = molecular target: T1, SHP2; assay: SHP2 degradation by Western blotting in HEK293 cells; format: cell-based; set-up: endogenous in cells; host or cells: HEK293; settings: HEK293, 16 h, 250 nM P9 in combination with 1 µM 3, 10 µM MG132, 1 µM MLN4924, 40 µM VHL-2 or 40 µM Lenalidomide
# Protocol: HEK293, SKBR3, U2OS, MCF7 and A549 cells were grown in DMEM supplemented with 10% FBS, penicillin (50 units/mL), and streptomycin (50 μg/mL) in a 37 °C incubator containing 5% CO2. […] For western-blot analysis, protein samples were separated by SDS-PAGE, transferred to nitrocellulose membranes, and incubated overnight at 4 °C with corresponding primary antibodies diluted in 5% BSA in phosphate-buffered saline Tween (PBST). SuperSignal™ West Pico PLUS (PI34580; Thermo Scientific) was used to visualize the antibodies in the bioanalytical imaging system (Azure Biosystems c500). […] Anti-PTP1B (ab244207) antibody was purchased from Abcam. For colony formation assay, a total of approximately 200–500 cells were seeded to each well in a 12-well plate.
# Supplemental Figures, Schemes, and Tables:
# Figure S1. Western blots of degradation assay for PROTAC screening. (A) Degradation assay of
# compo un ds i n Table 1 at 1 μM fo r 16 hours in H EK29 3 cells. (B) Degradation assay of compounds in Table
# 1 at 10 μM for 16 hours in HEK293 cells. (C) Degradation assay of compounds in Table 2 at 1 μM for 16
# [3] = test system: pERK1/2; set-up: method as in PMID 32910655; settings: cited from earlier work
Structure (SMILES),pIC50 [1],effect on P9-induced SHP2 degradation [2],pIC50 [3]
CCCCC1(CN)CCN(c2cnc(Sc3ccnc(N)c3Cl)c(N)n2)CC1 [compound 2],7.77,–,–
"CC1(CN)CCN(c2cnc(Sc3cccc(Cl)c3Cl)c(N)n2)CC1 [compound 3, reference compound]",–,prohibited P9-induced SHP2 degradation,7.06
